Results reported in US8377922B2, “Benzazepinone compound” (Ube Industries, Ltd., priority 2007, dated 2013).
Where a name gives a salt, the structure may show the parent alone.

Experiments:
[1] = test system: αvβ6 expressed cells (HT-29 cells); assay: Cell adhesion test of αvβ6 expressed cell; format: cell-based; settings: binding to human fibronectin, read-out: αvβ6 expressed cells adhesion inhibiting IC50 value
Experimental: The experiment was carried out by partially modifying the method of Goodman et al. (J. Med. Chem., 45, 1045 (2002)).
Human fibronectin (available from CHEMICON) was adjusted to […] with PBS. This was applied on the 96-well plate (MS9586F, available from SUMIRON) with 100 μL/well, coating was carried out at room temperature for 1 hour, and the coating solution was removed and dried. Thereafter, a blocking treatment was carried out with 1.0% BSA dissolved in DMEM for 1 hour, and washed with PBS, and this was used as a coating plate in the adhesion test. HT-29 cells (available from Dainippon Sumitomo Pharma Co., Ltd.) cultured in McCoy's 5A medium containing 10% FBS were detached by using trypsin-ethylenediamine tetraacetic acid, washed with PBS and recovered. Then, the cells were suspended in DMEM to prepare a HT-29 cells suspension. DMEM solution containing the HT-29 cells and a compound to be tested were each added to human fibronectin coating plates each in an amount of 50 μL/well to start the adhesion test.
The adhesion test was carried out in a 5% carbonic acid gas incubator (37° C.) for 2 hours. After completion of the adhesion test, the supernatant was removed by aspiration, and the plates were washed with PBS. Then, Crystal violet staining was carried out, and the number of cells was measured. A concentration (IC50 value) of the compound to be tested necessary for inhibiting 50% of binding to human fibronectin was calculated by using EXSAS (available from Arm Systex Co., Ltd.).

[2] = test system: αvβ3 expressed cells (HUVEC); assay: Cell adhesion test of αvβ3 expressed cell; format: cell-based; settings: binding to human vitronectin, 50% human serum-containing DMEM, read-out: αvβ3 expressed cells adhesion inhibiting IC50 value
Experimental: The experiment was carried out by partially modifying the method of Juliano et al. (Exp. Cell Res., 225(1), 132 (1996)).
Human vitronectin (available from CHEMICON) was adjusted to 10 μg/mL with phosphate buffered physiological saline (hereinafter abbreviated as PBS). This was applied onto the 96-well plate (MS9586F, available from SUMIRON) with 100 μL/well, coating was carried out at room temperature for 1 hour, and the coating solution was removed and the plate was dried. Thereafter, blocking treatment was carried out with 1.0% BSA dissolved in Dulbecco's Modified Eagle Medium (hereinafter abbreviated as DMEM) for 1 hour, washed with PBS, and the resulting material was used for the adhesion test as a coating plate. HUVEC (human umbilical endothelial cells) (available from Clonetics Corp.) cultured in endothelian cell basal medium EBM2 (available from Clonetics Corp.) containing EGM-2 SingleQuot Kit suppi. & growth factors EGM2 (available from Clonetics Corp.) and 10% fetal bovine serum (hereinafter abbreviated as FBS) were detached by using trypsin-ethylenediamine tetraacetic acid, washed by using PBS and recovered, and then, suspended in 50% human serum-containing DMEM to prepare cell suspension of HUVEC. […]
The adhesion test was carried out in a 5% carbonic acid gas incubator (37° C.) for 1 hour. […] Crystal violet staining was carried out, and the number of stained cells was measured. […]

Row | IC50 [1] [nM] | Structure (SMILES) | IC50 [2] [nM]
1 | > 100000 | CNc1cccc(CCOc2ccc3c(c2)CN(CC(F)(F)F)C(=O)C(CC(=O)O)C3)n1 (racemic) [Compound A, 8-[2-[6-(methylamino)-pyridin-2-yl]-1-ethoxy]-3-oxo-2-(2,2,2-trifluoroethyl)-2,3,4,5-tetrahydro-1H-2-benz-azepin-4-acetic acid, reference compound] | –
2 | 441 | O=C(O)CC1Cc2ccc(OCCc3cn4c(n3)NCCC4)cc2CN(CC(F)(F)F)C1=O (stereo not shown) [Example 2, 3-oxo-8-[2-(5,6,7,8-tetrahydroimidazo[1,2-a]pyrimidin-2-yl)ethoxy]-2-(2,2,2-tri-fluoroethyl)-2,3,4,5-tetrahydro-1H-2-benzazepin-4-acetic acid trifluoroacetate] | 61
3 | 296 | O=C(O)C[C@@H]1Cc2ccc(OCCc3cn4c(n3)NCCC4)cc2CN(CC(F)(F)F)C1=O [Example 4, (4S)-3-oxo-8-[2-(5,6,7,8-tetrahydroimidazo[1,2-a]pyrimidin-2-yl)ethoxy]-2-(2,2,2-trifluoroethyl)-2,3,4,5-tetrahydro-1H-2-benzazepin-4-acetic acid] | –
